Source: patent US20240018501A1, “HIGHER PERFORMANCE PROTEASES FOR SCARLESS PEPTIDE TAG REMOVAL” (priority 2017, published 2024)
Ends that are not written are not given here. * marks the point of attachment. Butanoyl(2-oxo) = CCC(=O)C(=O)*; Pyruvoyl = CC(=O)C(=O)*

What was measured:
[1] = tested on: Pediococcus acidilactici Pac1.0; test: Agar diffusion bioactivity assay; format: cell-based; details: for activity against P. acidilactici Pac1.0: agar diffusion
Protocol: (§1) Agar diffusion bioactivity assays were performed using de Man-Rogosa-Sharpe (MRS) agar media. For each assay, aliquots of agar medium inoculated with overnight cultures of indicator strain (1/100 dilution) were poured into sterile plates. Aliquots of 20 μL of sample were placed into wells made on the solidified agar and the plates were incubated at 37° C. overnight. For determination of critical concentration, the diameter of the inhibition zones were determined and fitted to the equation D=a+b×(C), where D is the diameter of the inhibition zone, C is the concentration of bacteriocin, and a and b are constant parameters. For MIC determinations, serial dilutions of peptides were prepared in MRS broth and aliquots of 50 μL were dissolved in 150 μL of a 1 to 50 dilution of an overnight culture of indicator strain in fresh MRS broth on 96-well plates. The cultures were incubated at 37° C. overnight and the wells with no bacterial growth (OD600<0.3) were determined.

L. sake L45 = test: Agar diffusion bioactivity assay, lactocin S producer strain; format: cell-based, Lactobacillus sake
Protocol: as §1

His6-ElxO = His6-ElxO activity assay (NADPH absorbance at 340 nm, LC-MS); format: biochemical, Staphylococcus epidermidis 15X154; details: LC-MS analysis
Protocol: Wild type or mutant His6-ElxO (2 or 10 μM) and purified peptide (0.1 to 5 mM) were incubated with NADPH (2.5 mM) in assay buffer (100 mM HEPES, 500 mM NaCl, pH 7.5) at 25° C. Reaction progress was monitored by UV spectrophotometry to measure initial rates, measuring the disappearance of NADPH absorbance at 340 nm. […] The mobile phase was 0.1% (v/v) formic acid in water (A) and methanol (B). A gradient of 0-70% (v/v) B in A over 30 minutes and a flow rate of 0.5 mL min^−1 were used.
Synthetic lactocin S (50 μM), obtained from Prof. J. Vederas (University of Alberta), was incubated with His6-ElxO (50 μM) and NADPH (10 mM) in assay buffer (100 mM HEPES, 500 mM NaCl, pH 7.5) at room temperature for 12 h. […] A gradient of 3-97% (v/v) B (0.10% (v/v) formic acid in methanol) in A (0.1% (v/v) formic acid in water) over 12 min was used.

modified CylLS [2] = target: modified CylLS
modified CylLS [3] = test: Kinetic analysis of full length CylA and CylA-96-412 against modified CylLS (LC/MS); format: biochemical, Enterococcus faecalis
Protocol: Targeted peptides were dissolved in H2O to a final concentration of 3 mg/mL. To a 85 μL solution of peptides, 10 μL of 500 mM HEPES buffer (pH 7.5) was added followed by 5 μL of 0.5 mg/mL AspN protease (for modified CylLL and CylLS peptides), 0.1 mg/mL CylA protease (for modified and unmodified CylLL, CylLS peptides, and modified HalA2-GDVQAE peptide) or 0.1 mg/mL LicP protease (for LicA2). For cleavage tests of the engineered GDVQAE peptides, CylA was added to a final concentration of 0.01 mg/mL, whereas the peptide was added to a concentration of 0.3 mg/mL with 50 mM HEPES buffer (pH 7.5). The protease cleavage reaction mixtures were kept at 25° C. for 1 to 48 h. Osmotic pressure was adjusted with NaCl solution with a final concentration of 150 mM. The digested peptide mixture was directly used for antimicrobial and hemolytic assay. For the kinetic analysis of CylA and its mutant proteins, His6-CylA-27-412 and His6-CylA-27-412-E95A proteins were added to a final concentration of 500 ng/mL and 2.5 μg/mL (22 nM and 110 nM), respectively, with modified CylLS supplied at a concentration of 0.3 mg/mL (36 μM). The reactions were allowed to proceed at room temperature and were stopped by 1% TFA at different time points for LC/MS analysis. Halα and Halβ were obtained by factor Xa cleavage of modified HalA1Xa and HalA2 Xa peptides using the procedure of Y. Shi, et al. J. Am. Chem. Soc. 2011, 133, 2338. CylLL″ and CylLS″ were prepared in the same way using modified CylLL-E-1K and CylLS-E-1K peptides as described in W. Tang and W. A. van der Donk, Nat. Chem. Biol. 2013, 9, 157.
As full length CylA is not available due to its self-cleavage, His6-CylA-27-412-E95A was chosen to serve as a substituent of full length CylA as the self-cleavage was abolished whereas the conserved catalytic C-terminal region of CylA remained unchanged. To obtain the mature protease CylA-96-412, His6-CylA-27-412 was aged at 4° C. for 12 hours to allow the self-cleavage to proceed until CylA-96-412 was the dominant peak monitored by MALDI-TOF MS. The aged protein mixture was directly used as a substituent of CylA-96-412. To test the proteases' activities, CylA-96-412 and His6-CylA-27-412-E95A were supplied with a final concentration of 22 nM and 110 nM, respectively, with modified CylLS served at a concentration of 36 μM. The reactions were stopped at 3 minute, 6 minute, 12 minute and 24 minute by 1% TFA and the formation of mature CylLS″ was monitored by liquid chromatography MS (LC/MS). […] The production of core peptide was analyzed by extracted ion chromatography monitoring the desired product mass 1017 (M+2H^+).

[4] = Storage and freeze-thaw stability of the proteases; format: physicochemical
CylA = CylA self-cleavage (SDS-PAGE, MALDI-TOF MS); format: biochemical, Enterococcus faecalis
Protocol: E. coli BL21 (DE3) cells were transformed with pRSFDuet-1/CylA-27-412, pRSFDuet-1/CylA-27-412-E95A, pRSFDuet-1/CylA-27-412-S359A or pRSFDuet-1/LicP-25-433 vectors and plated on an LB plate containing 50 mg/L kanamycin. A single colony was picked and grown in 20 mL of LB with kanamycin at 37° C. for 12 h and the resulting culture was inoculated into 2 L of LB. Cells were cultured at 37° C. until the OD at 600 nm reached 0.5, cooled and IPTG was added to a final concentration of 0.1 mM. The cells were cultured at 18° C. for another 10 h before harvesting. The cell pellet was resuspended on ice in LanP start buffer (20 mM HEPES, 1 M NaCl, pH 7.5 at 25° C.) and lysed by homogenization. The lysed sample was centrifuged at 23,700×g for 30 min and the pellet was discarded. The supernatant was passed through 0.45-μm syringe filters and the protein was purified by immobilized metal affinity chromatography (IMAC) loaded with nickel as described in B. Li et al. Methods Enzymol. 2009, 458, 533. […] Protein concentration was quantified by its absorbance at 280 nm. The extinction coefficient for His6-CylA-27-412, His6-CylA-27-412-E95A and His6-CylA-27-412-S359A was calculated as 30,830 M^−1 cm^−1. The extinction coefficient for His6-LicP-25-433 was calculated as 46,300 M^−1 cm^−1. […]

[5] = serial dilution agar diffusion, versus control samples containing native lactocin S

With dihydrolactocin S the “activity against P. acidilactici Pac1.0” value [1] was “active”, the “critical concentrations (no inhibition zone)” value [1, 5] was “smaller” and the inhibition zones [1, 5] was “slightly larger”. The “activity against L. sake L45” value (L. sake L45) was “not against L. sake L45”.

For Glx-AAIVK, the “reduction by His6-ElxO in the presence of NADPH” value (“reduction by His6-ElxO” for short) (His6-ElxO) was “no significant formation of the reduced peptide”.

For “Pyr-LGPAIK (Pyruvoyl-LGPAIK) [mimics the N-terminal portion of dehydroepicidin 280]”, the “reduction by His6-ElxO” value (His6-ElxO) was “reduced”.

With Pyr-BPVLAAVAVAKKK the “reduction by His6-ElxO” value (His6-ElxO) was “reduced”.

With “OBu-AGPAIR ({Butanoyl(2-oxo)}-AGPAIR) [resembles the N-terminus of Pep5]” the “reduction by His6-ElxO” value (His6-ElxO) was “reduced”.

For Obu-AAIVK, the “reduction by His6-ElxO” value (His6-ElxO) was “accepted as substrates”.

In the case of Pyr-AAVLK, the “reduction by His6-ElxO” value (His6-ElxO) is reported as “reduced”.

With Pyr-AAIV (Pyruvoyl-AAIV) the “reduction by His6-ElxO” value (His6-ElxO) was “reduced”.

With OBu-AAAVK ({Butanoyl(2-oxo)}-AAAVK) the “reduction by His6-ElxO” value (His6-ElxO) was “substrates for the enzyme”.

In the case of Pyr-AAI (Pyruvoyl-Ala-Ala-Ile), the “reduction by His6-ElxO” value (His6-ElxO) is reported as “reduced”.

With lactocin S [reference compound] the “reduction by His6-ElxO” value (His6-ElxO) was “confirming the formation of dihydrolactocin S”, the “activity against P. acidilactici Pac1.0” value [1] was “active” and the “activity against L. sake L45” value (L. sake L45) was “not against L. sake L45”.

In the case of “Pyr-APVLA (Pyruvoyl-APVLA) [resembles the N-terminus of lactocin S]”, the “reduction by His6-ElxO” value (His6-ElxO) is reported as “reduced”.

With OBu-AAIAK the “reduction by His6-ElxO” value (His6-ElxO) was “substrates for the enzyme”.

For Obu-RAIVK, the “reduction by His6-ElxO” value (His6-ElxO) was “accepted as substrates”.

B1: CylA-96-412 (protein)
chain: EVNSSILNINILNKDFKSFNWPYKKILSHIDPVKEQLGKDITIALIDSGIDRLHPNLQDNNLRLKNYVNDIELDEYGHGTQVAGVIDTIAPRVNLNSYKVMDGTDGNSINMLKAIVDATNDQVDIINVSLGSYKNMEIDDERFTVEAFRKVVNYARKNNILIVASAGNESRDISTGNEKHIPGGLESVITVGATKKSGDIADYSNYGSNVSIYGPAGGYGDNYKITGQIDAREMMMTYYPTSLVSPLGKAADFPDGYTLSFGTSLATPEVSAALAAIMSKNVDNSKDSNEVLNTLFENADSFIDKNSMLKYKEVRIK
In the case of B1, the “rate of proteolysis, formation of CylLS″ by LC/MS (22 nM enzyme, 36 µM substrate)” value (modified CylLS [2]) is reported as “CylA-96-412 catalyzed the proteolysis of 20 substrate peptides per minute” and the “rate of proteolysis of modified CylLS” value (modified CylLS [3]; enzyme 22 nM, modified CylLS 36 μM, room temperature, LC/MS) is reported as 20 substrate peptides per minute.

B2: CylA: class II LanP subtilisin-like serine protease of enterococcal cytolysin biosynthesis, SEQ ID NO: 9 (protein)
chain: MKKRGLTYILISYIFLILGTTGYASDLSNNISFFIDNSQTTAIEEIESELSSEKVDYIQEIGLVSFKNLDDSDRKFIGKYFNVSEGKKLPDFKPEEVNSSILNINILNKDFKSFNWPYKKILSHIDPVKEQLGKDITIALIDSGIDRLHPNLQDNNLRLKNYVNDIELDEYGHGTQVAGVIDTIAPRVNLNSYKVMDGTDGNSINMLKAIVDATNDQVDIINVSLGSYKNMEIDDERFTVEAFRKVVNYARKNNILIVASAGNESRDISTGNEKHIPGGLESVITVGATKKSGDIADYSNYGSNVSIYGPAGGYGDNYKITGQIDAREMMMTYYPTSLVSPLGKAADFPDGYTLSFGTSLATPEVSAALAAIMSKNVDNSKDSNEVLNTLFENADSFIDKNSMLKYKEVRIK
modifications: … PEPTIDE SEQUENCE FOR FULL LENGTH CylA
With B2 the turnover rate (modified CylLS [3]) was 20 min⁻¹, the “activity after multiple rounds of freeze-thaw” value [4] was “no obvious decrease of activity” and the stability on storage ([4]; −20° C) was “stable”.

B3: His6-CylA-27-412: CylA without secretion signal residues 1-26, N-terminal hexa-histidine tag, SEQ ID NO: 10 (protein)
chain: MGSSHHHHHHSQDPNSLSNNISFFIDNSQTTAIEEIESELSSEKVDYIQEIGLVSFKNLDDSDRKFIGKYFNVSEGKKLPDFKPEEVNSSILNINILNKDFKSFNWPYKKILSHIDPVKEQLGKDITIALIDSGIDRLHPNLQDNNLRLKNYVNDIELDEYGHGTQVAGVIDTIAPRVNLNSYKVMDGTDGNSINMLKAIVDATNDQVDIINVSLGSYKNMEIDDERFTVEAFRKVVNYARKNNILIVASAGNESRDISTGNEKHIPGGLESVITVGATKKSGDIADYSNYGSNVSIYGPAGGYGDNYKITGQIDAREMMMTYYPTSLVSPLGKAADFPDGYTLSFGTSLATPEVSAALAAIMSKNVDNSKDSNEVLNTLFENADSFIDKNSMLKYKEVRIK
modifications: N-terminal His6 tag; … PEPTIDE SEQUENCE FOR CylA with His6-tag, without the secretion signal peptide.
In the case of B3, the “CylA self-cleavage during expression or purification” value (CylA) is reported as “cleavage event after residue Glu95”.
